Test results reported in US7138361B2, “Herbicidal heterocycles” (E. I. du Pont de Nemours and Company, priority 2000, dated 2006).

How the values were obtained:
Assay type in all cases: in vivo
[1] = system: Surinam grass (Brachiaria decumbens); assay: Test B postemergence; settings: 13 to 15 days
Method in brief: (§1)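 Greenhouse test: chemicals are formulated in a surfactant-containing non-phytotoxic solvent and applied either preemergence to planted seeds or postemergence to plants 2 to 18 cm tall. Response is rated visually versus controls after 13 to 15 days, 0 meaning no effect and 100 complete control.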

[2] = system: barnyardgrass (Echinochloa crus-galli); assay: Test B postemergence; settings: 13 to 15 days
Method in brief: as §1

[3] = system: blackgrass (Alopecurus myosuroides); assay: Test B postemergence; settings: 13 to 15 days
Method in brief: as §1

[4] = system: cocklebur (Xanthium strumarium); assay: Test B postemergence; settings: 13 to 15 days
Method in brief: as §1

corn (Zea mays) [5] = assay: Test B postemergence; settings: 13 to 15 days
Method in brief: as §1

[6] = system: crabgrass (Digitaria sanguinalis); assay: Test B postemergence; settings: 13 to 15 days
Method in brief: as §1

[7] = system: giant foxtail (Setaria faberii); assay: Test B postemergence; settings: 13 to 15 days
Method in brief: as §1

[8] = system: lambsquarters (Chenopodium album); assay: Test B postemergence; settings: 13 to 15 days
Method in brief: as §1

[9] = system: morning glory (Ipomoea hederacea); assay: Test B postemergence; settings: 13 to 15 days
Method in brief: as §1

[10] = system: pigweed (Amaranthus retroflexus); assay: Test B postemergence; settings: 13 to 15 days
Method in brief: as §1

[11] = system: velvetleaf (Abutilon theophrasti); assay: Test B postemergence; settings: 13 to 15 days
Method in brief: as §1

[12] = system: wheat (Triticum aestivum); assay: Test B postemergence; settings: 13 to 15 days
Method in brief: as §1

wild oat (Avena fatua) = assay: Test B postemergence; settings: 13 to 15 days
Method in brief: as §1

[13] = system: bermudagrass (Cynodon dactylon); assay: Test C preemergence; settings: for Plant response rating (0 to 100 where 0 is no effect and 100 is complete control), Bermudagrass: visual evaluation after 12 to 14 days
Source text: (§2) Seeds of plant species selected from bermudagrass (Cynodon dactylon), Surinam grass (Brachiaria decumbens), cocklebur (Xanthium strumarium), corn (Zea mays), crabgrass (Digitaria sanguinalis), woolly cupgrass (Eriochloa villosa), giant foxtail (Setaria faberii), goosegrass (Eleusine indica), johnsongrass (Sorghum halepense), kochia (Kochia scoparia), lambsquarters (Chenopodium album), morningglory (Ipomoea hederacea), yellow nutsedge (Cyperus esculentus), pigweed (Amaranthus retroflexus), common ragweed (Ambrosia elatior), soybean (Glycine max) and velvetleaf (Abutilon theophrasti) were planted and treated preemergence with test chemicals formulated in a non-phytotoxic solvent mixture which included a surfactant.
(§3) At the same time, plants selected from these crop and weed species and also winter barley (Hordeum vulgare), blackgrass (Alopecurus myosuroides), canary grass (Phalaris minor), chickweed (Stellaria media), downy brome (Bromus tectorum), green foxtail (Setaria viridis), Italian ryegrass (Lolium multiflorum), wheat (Triticum aestivum), wild oat (Avena fatua) and windgrass (Apera spica-venti) were treated with postemergence applications of some of the test chemicals formulated in the same manner. Plants ranged in height from 2 to 18 cm (1- to 4-leaf stage) for postemergence treatments. Plant species in the flooded paddy test consisted of rice (Oryza saliva), smallflower flatsedge (Cyperus difformis), duck salad (Heteranthera limosa) and barnyardgrass (Echinochloa crus-galli) grown to the 2-leaf stage for testing. Treated plants and controls were maintained in a greenhouse for 12 to 14 days, after which time all species were compared to controls and visually evaluated. Plant response ratings, summarized in Table C, are based on a scale of 0 to 100 where 0 is no effect and 100 is complete control. A dash (-) response means no test result.

corn (Zea mays) [14] = assay: Test C preemergence; settings: for Plant response rating (0 to 100), Corn: visual evaluation after 12 to 14 days
Source text: as §2, §3

[15] = system: giant foxtail (Setaria faberii); assay: Test C preemergence; settings: for Plant response rating (0 to 100), Foxtail, Giant: visual evaluation after 12 to 14 days
Source text: as §2, §3

[16] = system: johnsongrass (Sorghum halepense); assay: Test C preemergence; settings: for Plant response rating (0 to 100), Johnsongrass: visual evaluation after 12 to 14 days
Source text: as §2, §3

kochia (Kochia scoparia) = assay: Test C preemergence; settings: for Plant response rating (0 to 100), Kochia: visual evaluation after 12 to 14 days
Source text: as §2, §3

[17] = system: morningglory (Ipomoea hederacea); assay: Test C preemergence
Source text: as §2, §3

[18] = system: velvetleaf (Abutilon theophrasti); assay: Test C preemergence
Source text: as §2, §3

[19] = system: yellow nutsedge (Cyperus esculentus); assay: Test C preemergence
Source text: as §2, §3

Sunflower [20] = assay: Test C preemergence; settings: Rate 500 g/ha, visual evaluation after 12 to 14 days
Sunflower [21] = assay: Test C preemergence; settings: Rate 125 g/ha; scale 0 to 100, 0 no effect, 100 complete control
Source text: as §2, §3

[22] = Rate 125 g/ha, scale 0 (no effect) to 100 (complete control)
[23] = Rate 500 g/ha, scale 0 to 100, 0 is no effect, 100 is complete control
[24] = Rate 62 g/ha, scale 0 to 100, 0 no effect, 100 complete control
[25] = preemergence, Rate 125 g/ha, scale 0 to 100, 0 no effect, 100 complete control
[26] = preemergence, Rate 500 g/ha, visual evaluation after 12 to 14 days
[27] = preemergence, Rate 250 g/ha, scale 0 to 100, 0 no effect, 100 complete control
[28] = Rate 125 g/ha, scale 0 to 100, 0 no effect, 100 complete control
[29] = preemergence, Rate 31 g/ha, scale 0 to 100
[30] = preemergence, Rate 62 g/ha, scale 0 to 100

CC1(c2ccn(C3SCN(c4cccc(C(F)(F)F)c4)C3=O)n2)CC1 (stereo not drawn) [Compound 64]
Plant response rating, Surinam grass [1, 22]: 0 | Plant response rating, Surinam grass [1, 23]: 40 | Plant response rating, Barnyardgrass [2, 22]: 0 | Plant response rating, Barnyardgrass [2, 23]: 50 | Plant response rating, Blackgrass [3, 22]: 0 | Plant response rating, Blackgrass [3, 23]: 0 | Plant response rating, Cocklebur [4, 22]: 70 | Plant response rating, Cocklebur [4, 23]: 70 | Plant response rating, Corn (corn (Zea mays) [5]; [22]): 0 | Plant response rating, Corn (corn (Zea mays) [5]; [23]): 20 | Plant response rating, Crabgrass [6, 22]: 0 | Plant response rating, Crabgrass [6, 23]: 50 | Plant response rating, Foxtail, Giant [7, 22]: 0 | Plant response rating, Foxtail, Giant [7, 23]: 30 | Plant response rating, Lambsquarters [8, 22]: 70 | Plant response rating, Lambsquarters [8, 23]: 80 | Plant response rating, Morningglory [9, 22]: 0 | Plant response rating, Morningglory [9, 23]: 60 | Plant response rating, Pigweed [10, 22]: 40 | Plant response rating, Pigweed [10, 23]: 70 | Plant response rating, Velvetleaf [11, 22]: 0 | Plant response rating, Velvetleaf [11, 23]: 30 | Plant response rating, Wheat [12, 22]: 0 | Plant response rating, Wheat [12, 23]: 0 | Plant response rating, Wild Oat (wild oat (Avena fatua); [22]): 0 | Plant response rating, Wild Oat (wild oat (Avena fatua); [23]): 0 | Plant response rating, Bermudagrass [13, 24]: 100 | Plant response rating (0 to 100 where 0 is no effect and 100 is complete control), Bermudagrass ([13]; preemergence, Rate 250 g/ha): 100 | Plant response rating (0 to 100 where 0 is no effect and 100 is complete control), Bermudagrass ([13]; preemergence, Rate 500 g/ha): 100 | Plant response rating, Bermudagrass [13, 25]: 100 | Plant response rating, Corn (corn (Zea mays) [14]; [24]): 0 | Plant response rating (0 to 100), Corn (corn (Zea mays) [14]; preemergence, Rate 250 g/ha): 30 | Plant response rating (0 to 100), Corn (corn (Zea mays) [14]; preemergence, Rate 500 g/ha): 40 | Plant response rating, Corn (corn (Zea mays) [14]; [25]): 0 | Plant response rating, Foxtail, Giant [15, 24]: 0 | Plant response rating (0 to 100), Foxtail, Giant ([15]; preemergence, Rate 250 g/ha): 100 | Plant response rating (0 to 100), Foxtail, Giant ([15]; preemergence, Rate 500 g/ha): 30 | Plant response rating, Foxtail, Giant [15, 25]: 50 | Plant response rating, Johnsongrass [16, 24]: 30 | Plant response rating (0 to 100), Johnsongrass ([16]; preemergence, Rate 250 g/ha): 90 | Plant response rating (0 to 100), Johnsongrass ([16]; preemergence, Rate 500 g/ha): 100 | Plant response rating, Johnsongrass [16, 25]: 70 | Plant response rating, Kochia (kochia (Kochia scoparia); [24]): 90 | Plant response rating (0 to 100), Kochia (kochia (Kochia scoparia); preemergence, Rate 250 g/ha): 100 | Plant response rating (0 to 100), Kochia (kochia (Kochia scoparia); preemergence, Rate 500 g/ha): 100 | Plant response rating, Kochia (kochia (Kochia scoparia); [25]): 100 | Plant response rating, Morningglory [17, 24]: 40 | Plant response rating (0 to 100), Morningglory [17, 26]: 60 | Plant response rating, Morningglory [17, 25]: 40 | Plant response rating, Morningglory [17, 27]: 40 | Plant response rating (0 to 100), Velvetleaf [18, 26]: 50 | Plant response rating, Velvetleaf [18, 25]: 0 | Plant response rating, Velvetleaf [18, 27]: 20 | Plant response rating, Nutsedge [19, 24]: 0 | Plant response rating (0 to 100), Nutsedge [19, 26]: 50 | Plant response rating, Nutsedge [19, 25]: 0 | Plant response rating, Nutsedge [19, 27]: 50 | Plant response rating (0 to 100), Sunflower (Sunflower [20]): 60

CCCC(C)c1ccn(C2SCN(c3cccc(OC(F)(F)F)c3)C2=O)n1 (stereo not drawn) [Compound 90]
Plant response rating, Surinam grass [1, 22]: 0 | Plant response rating, Surinam grass [1, 23]: 30 | Plant response rating, Barnyardgrass [2, 22]: 20 | Plant response rating, Barnyardgrass [2, 23]: 80 | Plant response rating, Blackgrass [3, 22]: 0 | Plant response rating, Blackgrass [3, 23]: 0 | Plant response rating, Cocklebur [4, 22]: 20 | Plant response rating, Cocklebur [4, 23]: 60 | Plant response rating, Corn (corn (Zea mays) [5]; [22]): 0 | Plant response rating, Corn (corn (Zea mays) [5]; [23]): 10 | Plant response rating, Crabgrass [6, 22]: 20 | Plant response rating, Crabgrass [6, 23]: 50 | Plant response rating, Foxtail, Giant [7, 22]: 0 | Plant response rating, Foxtail, Giant [7, 23]: 40 | Plant response rating, Lambsquarters [8, 23]: 100 | Plant response rating, Morningglory [9, 23]: 70 | Plant response rating, Pigweed [10, 23]: 90 | Plant response rating, Velvetleaf [11, 23]: 40 | Plant response rating, Wheat [12, 23]: 0 | Plant response rating, Wild Oat (wild oat (Avena fatua); [23]): 20 | Plant response rating, Sunflower (Sunflower [21]): 0 | Plant response rating, Bermudagrass [13, 28]: 100 | Plant response rating, Bermudagrass [13, 29]: 0 | Plant response rating, Bermudagrass [13, 30]: 0 | Plant response rating, Bermudagrass [13, 27]: 100 | Plant response rating, Corn (corn (Zea mays) [14]; [28]): 0 | Plant response rating, Corn (corn (Zea mays) [14]; [29]): 0 | Plant response rating, Corn (corn (Zea mays) [14]; [30]): 0 | Plant response rating, Corn (corn (Zea mays) [14]; [27]): 10 | Plant response rating, Foxtail, Giant [15, 28]: 0 | Plant response rating, Foxtail, Giant [15, 29]: 0 | Plant response rating, Foxtail, Giant [15, 30]: 40 | Plant response rating, Foxtail, Giant [15, 27]: 40 | Plant response rating, Johnsongrass [16, 28]: 70 | Plant response rating, Johnsongrass [16, 29]: 10 | Plant response rating, Johnsongrass [16, 30]: 10 | Plant response rating, Johnsongrass [16, 27]: 100 | Plant response rating, Kochia (kochia (Kochia scoparia); [28]): 40 | Plant response rating, Kochia (kochia (Kochia scoparia); [29]): 0 | Plant response rating, Kochia (kochia (Kochia scoparia); [30]): 0 | Plant response rating, Kochia (kochia (Kochia scoparia); [27]): 80 | Plant response rating, Morningglory [17, 28]: 0 | Plant response rating, Morningglory [17, 29]: 0 | Plant response rating, Morningglory [17, 30]: 0 | Plant response rating, Morningglory [17, 27]: 0 | Plant response rating, Velvetleaf [18, 28]: 0 | Plant response rating, Velvetleaf [18, 29]: 0 | Plant response rating, Velvetleaf [18, 30]: 0 | Plant response rating, Velvetleaf [18, 27]: 0 | Plant response rating, Nutsedge [19, 28]: 0 | Plant response rating, Nutsedge [19, 29]: 0 | Plant response rating, Nutsedge [19, 30]: 0 | Plant response rating, Nutsedge [19, 27]: 0
